In the supplement of paper PMC10307832:

Key:
XMD14-99 + Trametinib = compound: CN1CCN(CC1)C2=CC(=C(C=C2)NC3=NC(=C(S3)C(=O)C4=C(C=CC=C4Cl)Cl)N)OC [XMD14-99] + CC(=O)Nc1cccc(-n2c(=O)n(C3CC3)c(=O)c3c(Nc4ccc(I)cc4F)n(C)c(=O)c(C)c32)c1 [Trametinib] (partner 0.02 µM); test: relative viability (nuclei count vs DMSO), 5 days (fraction); higher = more cells survive
How it was run: (§1)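 Lung cancer cell lines, seeded in 1536-well plates, were treated the following day by pin tool with a single drug or with five library-drug doses (not always all listed) in √10 steps on top of a fixed anchor-drug dose. Cells were fixed and nuclei stained in one step after 5 days, and nuclei were counted. Relative viability is the nuclei count for treated wells divided by that for vehicle wells, reported as medians of duplicate plates.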

AZD1208 + Dasatinib = compound: N[C@@H]1CCCN(c2c(/C=C3\SC(=O)NC3=O)cccc2-c2ccccc2)C1 [AZD1208] + Cc1nc(Nc2ncc(C(=O)Nc3c(C)cccc3Cl)s2)cc(N2CCN(CCO)CC2)n1 [Dasatinib] (partner 0.075 µM); test: as above
How it was run: as §1

Cell Line | relative viability (XMD14-99 + Trametinib; first compound 0.08 µM) | relative viability (XMD14-99 + Trametinib; first compound 0.8 µM) | relative viability (XMD14-99 + Trametinib; first compound 2.53 µM) | relative viability (XMD14-99 + Trametinib; first compound 8 µM) | relative viability (AZD1208 + Dasatinib; first compound 0.08 µM) | relative viability (AZD1208 + Dasatinib; first compound 0.253 µM) | relative viability (AZD1208 + Dasatinib; first compound 0.8 µM) | relative viability (AZD1208 + Dasatinib; first compound 2.53 µM) | relative viability (AZD1208 + Dasatinib; first compound 8 µM)
NCI-H460 | 0.32 | 0.228 | 0.126 | 0.089 | 0.54 | 0.562 | 0.473 | 0.365 | 0.334
LOU-NH91 | 0.865 | 0.829 | 0.793 | 0.762 | 0.57 | 0.551 | 0.496 | 0.496 | 0.491
NCI-H322M | 0.491 | 0.565 | 0.593 | 0.521 | 0.261 | 0.235 | 0.23 | 0.224 | 0.228
NCI-H520 | 0.656 | 0.747 | 0.745 | 0.437 | 0.151 | 0.196 | 0.173 | 0.154 | 0.178
NCI-H661 | 0.573 | 0.598 | 0.481 | 0.516 | 0.95 | 0.98 | 0.864 | 0.777 | 0.902
NCI-H727 | 0.352 | 0.403 | 0.384 | 0.39 | 0.315 | 0.322 | 0.315 | 0.313 | 0.314
NCI-H1793 | 0.462 | 0.38 | 0.39 | 0.268 | 0.333 | 0.347 | 0.358 | 0.427 | 0.298
NCI-H1734 | 0.659 | 0.68 | 0.653 | 0.642 | 0.41 | 0.435 | 0.426 | 0.393 | 0.307
LXF-289 | 0.632 | 0.639 | 0.611 | 0.529 | 0.227 | 0.175 | 0.195 | 0.181 | 0.15
H3255 | 0.563 | 0.67 | 0.54 | 0.488 | 0.438 | 0.413 | 0.362 | 0.385 | 0.43
201T | 0.693 | 0.709 | 0.691 | 0.664 | 0.579 | 0.557 | 0.522 | 0.504 | 0.51
NCI-H2228 | 0.612 | 0.534 | 0.431 | 0.209 | 0.476 | 0.521 | 0.398 | 0.43 | 0.342
HOP-62 | 0.382 | 0.419 | 0.412 | 0.368 | 0.679 | 0.712 | 0.541 | 0.572 | 0.647
CAL-12T | 0.358 | 0.305 | 0.268 | 0.241 | 0.316 | 0.393 | 0.329 | 0.48 | 0.464
NCI-H596 | 0.749 | 0.849 | 1.06 | 0.764 | 0.545 | 0.586 | 0.524 | 0.524 | 0.462
NCI-H1755 | 0.794 | 0.777 | 0.752 | 0.559 | 0.422 | 0.407 | 0.345 | 0.339 | 0.209
NCI-H2085 | 0.49 | 0.621 | 0.498 | 0.485 | 0.27 | 0.217 | 0.306 | 0.218 | 0.262
NCI-H2023 | 0.495 | 0.562 | 0.754 | 0.442 | 0.506 | 0.614 | 0.457 | 0.472 | 0.493
